The conditions of data set [1]: crystalline monohydrate form; background statement; cited from earlier work.
The conditions of data set [2]: as stated in U.S. Pat. No. 5,312,925; cited from earlier work.
The nature of a further data set: aqueous solubility. The class given is physicochemical. The following applies: relative to those of the prior art; no test described.

Consider two molecules from patent US7939662B2, “Amorphous ziprasidone hydrochloride (5-[2-[4-(1,2-benzisothiazol-3-yl)-1-piperazinyl]ethyl]-6-chloro-1,3-dihydro-2H-indol-2-one hydrochloride) and processes to produce the same” (Apotex Pharmachem Inc., priority 2004, dated 2011).

Turning to `Cl.O=C1Cc2cc(CCN3CCN(c4nsc5ccccc45)CC3)c(Cl)cc2N1` [ziprasidone hydrochloride monohydrate, 5-[2-[4-(1,2-benzisothiazol-3-yl)-1-piperazinyl]ethyl]-6-chloro-1,3-dihydro-2H-indol-2-one hydrochloride], the aqueous solubility result in data set [1] is given as “very low”. Moreover, the hygroscopic stability result in data set [2] is listed as “hygroscopically stable”.
For `Cl.O=C1Cc2cc(CCN3CCN(c4nsc5ccccc45)CC3)c(Cl)cc2N1` [amorphous ziprasidone hydrochloride, 5-[2-[4-(1,2-benzisothiazol-3-yl)-1-piperazinyl]ethyl]-6-chloro-1,3-dihydro-2H-indol-2-one hydrochloride], the “water solubility relative to the prior art forms” value in the data set “aqueous solubility” was “better water solubility”.
